In PMC7156458, “Synthetic biology based construction of biological activity-related library of fungal decalin-containing diterpenoid pyrones” (Nature Communications, 2020):

Target: Aβ42 (Homo sapiens, UniProt P05067)
Test: Th-T (thioflavin-T) assay of Aβ42 aggregation
Type: biochemical

Sequence of Aβ42 (P05067 672-713): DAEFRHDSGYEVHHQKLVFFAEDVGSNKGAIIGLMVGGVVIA

C=C1CCC2C(C)(CCC=C(C)C)C(O)CCC2(C)C1Cc1c(OC)oc(C)c(C(=O)OC)c1=O (stereo not drawn) [Compound 14]
Fig. 7a Th-T reading, mean of three wells (column suffix _20, reading M101): 1.75 | Fig. 7a Th-T reading, mean of three wells (column suffix _20, reading M102): 1.725 | Fig. 7a Th-T reading, mean of three wells (column suffix _20, reading M103): 1.692 | Fig. 7a Th-T reading, mean of three wells (column suffix _20, reading M104): 1.726 | Fig. 7a Th-T reading, mean of three wells (column suffix _20, reading M105): 1.714 | Fig. 7a Th-T reading, mean of three wells (column suffix _20, reading M106): 1.718 | Th-T fluorescence, mean of three wells (Fig. 7a) (column suffix _50, measurement M19): 0.5495 | Th-T fluorescence, mean of three wells (Fig. 7a) (column suffix _50, measurement M20): 0.5788 | Th-T fluorescence, mean of three wells (Fig. 7a) (column suffix _50, measurement M21): 0.6066 | Th-T fluorescence, mean of three wells (Fig. 7a) (column suffix _50, measurement M22): 0.6351 | Th-T fluorescence, mean of three wells (Fig. 7a) (column suffix _50, measurement M23): 0.669 | Th-T fluorescence, mean of three wells (Fig. 7a) (column suffix _50, measurement M24): 0.7075 | Th-T fluorescence, mean of three wells (Fig. 7a) (column suffix _50, measurement M25): 0.7535 | Th-T fluorescence, mean of three wells (Fig. 7a) (column suffix _50, measurement M26): 0.8076 | Th-T fluorescence, mean of three wells (Fig. 7a) (column suffix _50, measurement M27): 0.8688 | Th-T fluorescence, mean of three wells (Fig. 7a) (column suffix _50, measurement M28): 0.9376 | Th-T fluorescence, mean of three wells (Fig. 7a) (column suffix _50, measurement M29): 1.02 | Th-T assay signal, mean of three wells (Fig. 7a) (column suffix _50, reading M1): 0.5105 | Th-T assay signal, mean of three wells (Fig. 7a) (column suffix _50, reading M2): 0.462 | Th-T assay signal, mean of three wells (Fig. 7a) (column suffix _50, reading M3): 0.4558 | Th-T assay signal, mean of three wells (Fig. 7a) (column suffix _50, reading M4): 0.4485 | Th-T assay signal, mean of three wells (Fig. 7a) (column suffix _50, reading M5): 0.4526 | Th-T assay signal, mean of three wells (Fig. 7a) (column suffix _50, reading M6): 0.449 | Th-T assay signal, mean of three wells (Fig. 7a) (column suffix _50, reading M7): 0.4479 | Th-T assay signal, mean of three wells (Fig. 7a) (column suffix _50, reading M8): 0.4517 | Th-T assay signal, mean of three wells (Fig. 7a) (column suffix _50, reading M9): 0.4533 | Th-T assay signal, mean of three wells (Fig. 7a) (column suffix _50, reading M10): 0.4553 | Th-T assay signal, mean of three wells (Fig. 7a) (column suffix _50, reading M11): 0.4593 | Th-T assay signal, mean of three wells (Fig. 7a) (column suffix _50, reading M12): 0.4664 | Th-T assay signal, mean of three wells (Fig. 7a) (column suffix _50, reading M13): 0.4713 | Th-T assay signal, mean of three wells (Fig. 7a) (column suffix _50, reading M14): 0.4784 | Th-T assay signal, mean of three wells (Fig. 7a) (column suffix _50, reading M15): 0.4927 | Th-T assay signal, mean of three wells (Fig. 7a) (column suffix _50, reading M16): 0.5 | Th-T assay signal, mean of three wells (Fig. 7a) (column suffix _50, reading M17): 0.5148 | Th-T assay signal, mean of three wells (Fig. 7a) (column suffix _50, reading M18): 0.5358 | Fig. 7a Th-T reading, mean of three wells (column suffix _50, reading M85): 2.033 | Fig. 7a Th-T reading, mean of three wells (column suffix _50, reading M86): 1.994 | Fig. 7a Th-T reading, mean of three wells (column suffix _50, reading M87): 1.943 | Fig. 7a Th-T reading, mean of three wells (column suffix _50, reading M88): 1.897 | Fig. 7a Th-T reading, mean of three wells (column suffix _50, reading M89): 1.8491 | Fig. 7a Th-T reading, mean of three wells (column suffix _50, reading M90): 1.8142 | Fig. 7a Th-T reading, mean of three wells (column suffix _50, reading M91): 1.746 | Fig. 7a Th-T reading, mean of three wells (column suffix _50, reading M92): 1.726 | Fig. 7a Th-T reading, mean of three wells (column suffix _50, reading M93): 1.698 | Fig. 7a Th-T reading, mean of three wells (column suffix _50, reading M94): 1.676 | Fig. 7a Th-T reading, mean of three wells (column suffix _50, reading M95): 1.616 | Fig. 7a Th-T reading, mean of three wells (column suffix _50, reading M96): 1.587 | Fig. 7a Th-T reading, mean of three wells (column suffix _50, reading M97): 1.553 | Fig. 7a Th-T reading, mean of three wells (column suffix _50, reading M98): 1.5408 | Fig. 7a Th-T reading, mean of three wells (column suffix _50, reading M99): 1.482 | Fig. 7a Th-T reading, mean of three wells (column suffix _50, reading M100): 1.465 | Fig. 7a Th-T reading, mean of three wells (column suffix _50, reading M101): 1.408 | Fig. 7a Th-T reading, mean of three wells (column suffix _50, reading M102): 1.3987 | Fig. 7a Th-T reading, mean of three wells (column suffix _50, reading M103): 1.372 | Fig. 7a Th-T reading, mean of three wells (column suffix _50, reading M104): 1.353 | Fig. 7a Th-T reading, mean of three wells (column suffix _50, reading M105): 1.325 | Fig. 7a Th-T reading, mean of three wells (column suffix _50, reading M106): 1.281 | Th-T fluorescence, mean of three wells (compound at 10, reading M41 of time course): 2.4889 | Th-T fluorescence, mean of three wells (compound at 10, reading M42 of time course): 2.504 | Th-T fluorescence, mean of three wells (compound at 10, reading M43 of time course): 2.483 | Th-T fluorescence, mean of three wells (compound at 10, reading M44 of time course): 2.485 | Th-T fluorescence, mean of three wells (compound at 10, reading M45 of time course): 2.494 | Th-T fluorescence, mean of three wells (compound at 10, reading M46 of time course): 2.517 | Th-T fluorescence, mean of three wells (compound at 10, reading M47 of time course): 2.535 | Th-T fluorescence, mean of three wells (compound at 10, reading M48 of time course): 2.517 | Th-T fluorescence, mean of three wells (compound at 10, reading M49 of time course): 2.512 | Th-T fluorescence, mean of three wells (compound at 10, reading M50 of time course): 2.53 | Th-T fluorescence, mean of three wells (compound at 10, reading M51 of time course): 2.541 | Th-T fluorescence, mean of three wells (compound at 10, reading M52 of time course): 2.557 | Th-T fluorescence, mean of three wells (compound at 10, reading M53 of time course): 2.545 | Th-T fluorescence, mean of three wells (compound at 10, reading M54 of time course): 2.546 | Th-T fluorescence, mean of three wells (compound at 10, reading M55 of time course): 2.573 | Th-T fluorescence, mean of three wells (compound at 10, reading M56 of time course): 2.561 | Th-T fluorescence, mean of three wells (compound at 10, reading M57 of time course): 2.58 | Th-T fluorescence, mean of three wells (compound at 10, reading M58 of time course): 2.605 | Th-T fluorescence, mean of three wells (compound at 10, reading M59 of time course): 2.634 | Th-T fluorescence, mean of three wells (compound at 10, reading M60 of time course): 2.6643 | Th-T fluorescence, mean of three wells (compound at 10, reading M61 of time course): 2.702 | Th-T fluorescence, mean of three wells (compound at 10, reading M62 of time course): 2.713 | Th-T fluorescence, mean of three wells (compound at 20, reading M41 of time course): 2.067 | Th-T fluorescence, mean of three wells (compound at 20, reading M42 of time course): 2.077 | Th-T fluorescence, mean of three wells (compound at 20, reading M43 of time course): 2.068 | Th-T fluorescence, mean of three wells (compound at 20, reading M44 of time course): 2.111 | Th-T fluorescence, mean of three wells (compound at 20, reading M45 of time course): 2.074 | Th-T fluorescence, mean of three wells (compound at 20, reading M46 of time course): 2.138 | Th-T fluorescence, mean of three wells (compound at 20, reading M47 of time course): 2.131 | Th-T fluorescence, mean of three wells (compound at 20, reading M48 of time course): 2.161 | Th-T fluorescence, mean of three wells (compound at 20, reading M49 of time course): 2.157 | Th-T fluorescence, mean of three wells (compound at 20, reading M50 of time course): 2.15 | Th-T fluorescence, mean of three wells (compound at 20, reading M51 of time course): 2.157 | Th-T fluorescence, mean of three wells (compound at 20, reading M52 of time course): 2.143 | Th-T fluorescence, mean of three wells (compound at 20, reading M53 of time course): 2.161 | Th-T fluorescence, mean of three wells (compound at 20, reading M54 of time course): 2.178 | Th-T fluorescence, mean of three wells (compound at 20, reading M55 of time course): 2.1338 | Th-T fluorescence, mean of three wells (compound at 20, reading M56 of time course): 2.09 | Th-T fluorescence, mean of three wells (compound at 20, reading M57 of time course): 2.136 | Th-T fluorescence, mean of three wells (compound at 20, reading M58 of time course): 2.093 | Th-T fluorescence, mean of three wells (compound at 20, reading M59 of time course): 2.054 | Th-T fluorescence, mean of three wells (compound at 20, reading M60 of time course): 2.083 | Th-T fluorescence, mean of three wells (compound at 20, reading M61 of time course): 2.064 | Th-T fluorescence, mean of three wells (compound at 20, reading M62 of time course): 2.104 | Th-T fluorescence, mean of three wells (compound at 50, reading M41 of time course): 4.082 | Th-T fluorescence, mean of three wells (compound at 50, reading M42 of time course): 4.376 | Th-T fluorescence, mean of three wells (compound at 50, reading M43 of time course): 4.613 | Th-T fluorescence, mean of three wells (compound at 50, reading M44 of time course): 4.79 | Th-T fluorescence, mean of three wells (compound at 50, reading M45 of time course): 4.938 | Th-T fluorescence, mean of three wells (compound at 50, reading M46 of time course): 5.058 | Th-T fluorescence, mean of three wells (compound at 50, reading M47 of time course): 5.101 | Th-T fluorescence, mean of three wells (compound at 50, reading M48 of time course): 5.128 | Th-T fluorescence, mean of three wells (compound at 50, reading M49 of time course): 5.105 | Th-T fluorescence, mean of three wells (compound at 50, reading M50 of time course): 5.093 | Th-T fluorescence, mean of three wells (compound at 50, reading M51 of time course): 4.998 | Th-T fluorescence, mean of three wells (compound at 50, reading M52 of time course): 4.942 | Th-T fluorescence, mean of three wells (compound at 50, reading M53 of time course): 4.822
